Reference: patent US20240067693A1, “POLYPEPTIDES AND USES THEREOF” (MEDIMMUNE LIMITED, priority 2020, published 2024)
Numbered stars: 1 amine (or outer) side, 2 acyl side, 3 side chain; on linkers, the order of the positions; unused ones are H or OH. Bridge positions count the residues as written; N and C are the ends. Square brackets hold non-standard residues; d marks the D form. Side chains are listed from the residue outwards. Peptide text beside a SMILES is read from it. * marks the point of attachment. C20 diacid = O=C(O)CCCCCCCCCCCCCCCCCCC(=O)*; C18 diacid = O=C(O)CCCCCCCCCCCCCCCCC(=O)*; γGlu = O=C(O)[C@H](CCC(=O)[*:2])N[*:1]; Dab = NCC[C@H](N)C(=O)O; Aib = CC(C)(N)C(=O)O

How the values were obtained:
[1] = molecular target: T1, human calcitonin receptor (hCTR) (Homo sapiens, UniProt P30988); test: cAMP production in 1321N1 cells with stable recombinant expression of human calcitonin receptor (hCTR); type: cell-based; conditions: cAMP, 1321N1 cells, assay buffer with 0.1% BSA; read-out: EC50 (pM) hCTR
T1 construct: expressed in transfected cells
T1 sequence (P30988 25-474): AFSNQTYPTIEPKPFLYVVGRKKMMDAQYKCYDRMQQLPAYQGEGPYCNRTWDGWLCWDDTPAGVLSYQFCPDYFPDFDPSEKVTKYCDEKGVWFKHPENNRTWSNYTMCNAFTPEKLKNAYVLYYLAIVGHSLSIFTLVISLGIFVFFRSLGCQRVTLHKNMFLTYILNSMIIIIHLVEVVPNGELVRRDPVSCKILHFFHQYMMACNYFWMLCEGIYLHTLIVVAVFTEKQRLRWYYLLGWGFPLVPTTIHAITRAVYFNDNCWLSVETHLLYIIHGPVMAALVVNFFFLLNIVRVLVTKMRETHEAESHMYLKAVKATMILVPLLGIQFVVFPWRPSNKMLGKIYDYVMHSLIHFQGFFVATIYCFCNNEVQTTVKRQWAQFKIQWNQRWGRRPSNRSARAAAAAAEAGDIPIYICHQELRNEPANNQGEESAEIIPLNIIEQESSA
Summary of the method: (§1)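 Receptor-expressing cells (human receptors in 1321N1, rat receptors in HEK) incubated 30 min at room temperature with peptide in HBSS/HEPES pH 7.4, 0.1% BSA, 0.5 mM IBMX. cAMP read by HTRF; EC50 from 4-parameter fit as % of maximal amylin or calcitonin response.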

[2] = molecular target: T2, human amylin receptor (calcitonin receptor co-expressed with receptor activity modifying protein, RAMP3) (hAMYR3) (Homo sapiens, UniProt O60896+P30988); test: cAMP production in 1321N1 cells with stable recombinant expression of human amylin receptor (hAMYR3); type: cell-based; conditions: for Ratio (selectivity hAMYR vs hCTR, ratio of EC50 values at the two receptors): EC50 hCTR / EC50 hAMYR3; for EC50: cAMP, 1321N1 cells, assay buffer with 0.1% BSA, read-out: EC50 (pM) hAMYR3
T2 construct: expressed in transfected cells
T2 sequence (P30988 25-474): T1 sequence (P30988 25-474)
T2 sequence (O60896 24-148 partner): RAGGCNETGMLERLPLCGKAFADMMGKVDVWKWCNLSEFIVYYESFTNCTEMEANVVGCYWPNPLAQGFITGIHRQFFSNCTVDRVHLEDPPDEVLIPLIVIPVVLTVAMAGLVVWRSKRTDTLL
Summary of the method: as §1

Compound	EC50 [1] [pM]	Ratio (selectivity hAMYR vs hCTR, ratio of EC50 values at the two receptors) [2]	EC50 [2] [pM]
CC[C@H](C)[C@H](NC(=O)[C@H](C)NC(=O)[C@@H]1CCCN1C(=O)[C@H](Cc1ccccc1)NC(=O)[C@H](CC(N)=O)NC(=O)C(C)(C)NC(=O)[C@H](CO)NC(=O)[C@H](CO)NC(=O)[C@H](Cc1c[nH]cn1)NC(=O)[C@@H](NC(=O)[C@H](CC(C)C)NC(=O)[C@H](Cc1ccccc1)NC(=O)[C@H](CC(N)=O)NC(=O)[C@H](C)NC(=O)[C@H](CC(C)C)NC(=O)[C@H](CCCNC(=N)N)NC(=O)[C@H](CCC(N)=O)NC(=O)[C@@H](NC(=O)[C@H](C)NC(=O)[C@@H]1CSSC[C@H](NC(=O)[C@@H](N)CCCCNC(=O)CC[C@H](NC(=O)CC[C@H](NC(=O)CCCCCCCCCCCCCCCCCCC(=O)O)C(=O)O)C(=O)O)C(=O)N[C@@H](CC(N)=O)C(=O)N[C@@H]([C@@H](C)O)C(=O)N[C@@H](C)C(=O)N[C@@H]([C@@H](C)O)C(=O)N1)[C@@H](C)O)C(C)C)C(=O)N[C@@H](CC(C)C)C(=O)N[C@@H](CO)C(=O)N1CCC[C@H]1C(=O)N[C@H](C(=O)N[C@@H](CCN)C(=O)N[C@H](C(=O)NCC(=O)N[C@@H](CO)C(=O)N[C@@H](CC(N)=O)C(=O)N[C@H](C(=O)N[C@@H](Cc1ccc(O)cc1)C(N)=O)[C@@H](C)O)C(C)C)[C@@H](C)O [Peptide 123, K(γE-γE-C20diacid)[CNTATC]ATQRLANFLVHSS(Aib)NFPAILSPT(Dab)VGSNTY-amide] (H-K([γGlu-γGlu-C20 diacid])CNTATCATQRLANFLVHSS[Aib]NFPAILSPT[Dab]VGSNTY-NH2; disulfide 2-7; N-terminus assumed)	4790	5	873
CC[C@H](C)[C@H](NC(=O)[C@@H]1CCCN1C(=O)CNC(=O)[C@H](Cc1ccccc1)NC(=O)[C@H](CC(N)=O)NC(=O)[C@H](CCN)NC(=O)[C@H](CO)NC(=O)[C@H](CO)NC(=O)[C@H](Cc1c[nH]cn1)NC(=O)C(C)(C)NC(=O)[C@H](CC(C)C)NC(=O)[C@H](Cc1ccccc1)NC(=O)[C@H](CC(N)=O)NC(=O)[C@H](C)NC(=O)[C@H](CC(C)C)NC(=O)[C@H](CCCNC(=N)N)NC(=O)[C@H](CCC(N)=O)NC(=O)[C@@H](NC(=O)[C@H](C)NC(=O)[C@@H]1CSSC[C@H](NC(=O)[C@H](CCCCN)NC(=O)[C@@H](N)CCCCNC(=O)CC[C@H](NC(=O)CCCCCCCCCCCCCCCCC(=O)O)C(=O)O)C(=O)N[C@@H](CC(N)=O)C(=O)N[C@@H]([C@@H](C)O)C(=O)N[C@@H](C)C(=O)N[C@@H]([C@@H](C)O)C(=O)N1)[C@@H](C)O)C(=O)N[C@@H](CC(C)C)C(=O)N1CCC[C@H]1C(=O)N1CCC[C@H]1C(=O)N[C@H](C(=O)N[C@@H](CC(N)=O)C(=O)N[C@H](C(=O)NCC(=O)N[C@@H](CO)C(=O)N[C@@H](CC(N)=O)C(=O)N[C@H](C(=O)N[C@@H](Cc1ccc(O)cc1)C(N)=O)[C@@H](C)O)C(C)C)[C@@H](C)O [Peptide 126, K(γE-C18diacid)K[CNTATC]ATQRLANFL(Aib)HSS(Dab)NFGPILPPTNVGSNTY-amide] (H-K([γGlu-C18 diacid])KCNTATCATQRLANFL[Aib]HSS[Dab]NFGPILPPTNVGSNTY-NH2; disulfide 3-8)	8450	19	445

Now from value to molecule:

EC50 [1] [pM]	Ratio (selectivity hAMYR vs hCTR, ratio of EC50 values at the two receptors) [2]	EC50 [2] [pM]	Compound
6180	9	655	CC[C@H](C)[C@H](NC(=O)[C@H](C)NC(=O)[C@@H]1CCCN1C(=O)[C@H](Cc1ccccc1)NC(=O)[C@H](CC(N)=O)NC(=O)C(C)(C)NC(=O)[C@H](CO)NC(=O)[C@H](CO)NC(=O)[C@H](Cc1c[nH]cn1)NC(=O)[C@@H](NC(=O)[C@H](CC(C)C)NC(=O)[C@H](Cc1ccccc1)NC(=O)[C@H](CC(N)=O)NC(=O)[C@H](C)NC(=O)[C@H](CC(C)C)NC(=O)[C@H](CCCNC(=N)N)NC(=O)[C@H](CCC(N)=O)NC(=O)[C@@H](NC(=O)[C@H](C)NC(=O)[C@@H]1CSSC[C@H](NC(=O)[C@@H](N)CCCCNC(=O)CC[C@H](NC(=O)CC[C@H](NC(=O)CCCCCCCCCCCCCCCCC(=O)O)C(=O)O)C(=O)O)C(=O)N[C@@H](CC(N)=O)C(=O)N[C@@H]([C@@H](C)O)C(=O)N[C@@H](C)C(=O)N[C@@H]([C@@H](C)O)C(=O)N1)[C@@H](C)O)C(C)C)C(=O)N[C@@H](CC(C)C)C(=O)N[C@@H](CO)C(=O)N1CCC[C@H]1C(=O)N[C@H](C(=O)N[C@@H](CCN)C(=O)N[C@H](C(=O)NCC(=O)N[C@@H](CO)C(=O)N[C@@H](CC(N)=O)C(=O)N[C@H](C(=O)N[C@@H](Cc1ccc(O)cc1)C(N)=O)[C@@H](C)O)C(C)C)[C@@H](C)O [Peptide 122, K(γE-γE-C18diacid)[CNTATC]ATQRLANFLVHSS(Aib)NFPAILSPT(Dab)VGSNTY-amide] (H-K([γGlu-γGlu-C18 diacid])CNTATCATQRLANFLVHSS[Aib]NFPAILSPT[Dab]VGSNTY-NH2; disulfide 2-7)
6630	6	1130	CC[C@H](C)[C@H](NC(=O)[C@H](C)NC(=O)[C@@H]1CCCN1C(=O)[C@H](Cc1ccccc1)NC(=O)[C@H](CC(N)=O)NC(=O)C(C)(C)NC(=O)[C@H](CO)NC(=O)[C@H](CO)NC(=O)[C@H](Cc1c[nH]cn1)NC(=O)[C@@H](NC(=O)[C@H](CC(C)C)NC(=O)[C@H](Cc1ccccc1)NC(=O)[C@H](CC(N)=O)NC(=O)[C@H](C)NC(=O)[C@H](CC(C)C)NC(=O)[C@H](CCCNC(=N)N)NC(=O)[C@H](CCC(N)=O)NC(=O)[C@@H](NC(=O)[C@H](C)NC(=O)[C@@H]1CSSC[C@H](NC(=O)[C@@H](N)CCCCNC(=O)CC[C@H](NC(=O)CC[C@H](NC(=O)CCCCCCCCCCCCCCCCC(=O)O)C(=O)O)C(=O)O)C(=O)N[C@@H](CC(N)=O)C(=O)N[C@@H]([C@@H](C)O)C(=O)N[C@@H](C)C(=O)N[C@@H]([C@@H](C)O)C(=O)N1)[C@@H](C)O)C(C)C)C(=O)N[C@@H](CC(C)C)C(=O)N[C@@H](CO)C(=O)N1CCC[C@H]1C(=O)N[C@H](C(=O)N[C@@H](CC(N)=O)C(=O)N[C@H](C(=O)NCC(=O)N[C@@H](CO)C(=O)N[C@@H](CCN)C(=O)N[C@H](C(=O)N[C@@H](Cc1ccc(O)cc1)C(N)=O)[C@@H](C)O)C(C)C)[C@@H](C)O [Peptide 124, K(γE-γE-C18diacid)[CNTATC]ATQRLANFLVHSS(Aib)NFPAILSPTNVGS(Dab)TY-amide] (H-K([γGlu-γGlu-C18 diacid])CNTATCATQRLANFLVHSS[Aib]NFPAILSPTNVGS[Dab]TY-NH2; disulfide 2-7; N-terminus assumed)
10200	8		CC[C@H](C)[C@H](NC(=O)[C@H](C)NC(=O)[C@@H]1CCCN1C(=O)[C@H](Cc1ccccc1)NC(=O)[C@H](CC(N)=O)NC(=O)C(C)(C)NC(=O)[C@H](CO)NC(=O)[C@H](CO)NC(=O)[C@H](Cc1c[nH]cn1)NC(=O)[C@@H](NC(=O)[C@H](CC(C)C)NC(=O)[C@H](Cc1ccccc1)NC(=O)[C@H](CC(N)=O)NC(=O)[C@H](C)NC(=O)[C@H](CC(C)C)NC(=O)[C@H](CCCNC(=N)N)NC(=O)[C@H](CCC(N)=O)NC(=O)[C@@H](NC(=O)[C@H](C)NC(=O)[C@@H]1CSSC[C@H](NC(=O)[C@@H](N)CCCCNC(=O)CC[C@H](NC(=O)CC[C@H](NC(=O)CCCCCCCCCCCCCCCCCCC(=O)O)C(=O)O)C(=O)O)C(=O)N[C@@H](CC(N)=O)C(=O)N[C@@H]([C@@H](C)O)C(=O)N[C@@H](C)C(=O)N[C@@H]([C@@H](C)O)C(=O)N1)[C@@H](C)O)C(C)C)C(=O)N[C@@H](CC(C)C)C(=O)N[C@@H](CO)C(=O)N1CCC[C@H]1C(=O)N[C@H](C(=O)N[C@@H](CC(N)=O)C(=O)N[C@H](C(=O)NCC(=O)N[C@@H](CO)C(=O)N[C@@H](CCN)C(=O)N[C@H](C(=O)N[C@@H](Cc1ccc(O)cc1)C(N)=O)[C@@H](C)O)C(C)C)[C@@H](C)O [Peptide 125, K(γE-γE-C20diacid)[CNTATC]ATQRLANFLVHSS(Aib)NFPAILSPTNVGS(Dab)TY-amide] (H-K([γGlu-γGlu-C20 diacid])CNTATCATQRLANFLVHSS[Aib]NFPAILSPTNVGS[Dab]TY-NH2; disulfide 2-7; N-terminus assumed)
